# Counter-ions that a name gives are not always drawn. Like-named read-outs stand apart in the source and are kept apart here.
# What was measured:
# Format in all cases: cell-based
# S. typhosa = experiment: conventional agar dilution test, S. typhosa; details: St = S. typhosa, complete growth inhibition
# Description: (§1) In representative operations, the products of the invention when tested for antimicrobial activity using conventional agar dilution tests gave complete growth inhibition against the following organisms at the indicated concentrations in parts per million:
# (§2) Minimum Inhibitory Concentration, ppm
# A. niger = experiment: conventional agar dilution test, A. niger; details: An = A. niger, complete growth inhibition; for MIC: Aspergillus niger, read-out: Minimum Inhibitory Concentration
# Description: as §1, §2
# C. pelliculosa = experiment: conventional agar dilution test, C. pelliculosa; details: Cp = C. pelliculosa
# Description: as §1, §2
# S. aureus = experiment: conventional agar dilution test, S. aureus; details: Sa = S. aureus, complete growth inhibition
# Description: as §1, §2
# P. aeruginosa = experiment: conventional agar dilution test, P. aeruginosa; details: Pa = P. aeruginosa, complete growth inhibition; for MIC: Pseudomonas aeruginosa, read-out: Minimum Inhibitory Concentration
# Description: as §1, §2
# S. cerevisiae = experiment: conventional agar dilution test, S. cerevisiae; details: Sc = S. cerevisiae; for MIC / Minimum Inhibitory Concentration: complete growth inhibition, agar dilution; for MIC: read-out: Minimum Inhibitory Concentration
# Description: as §1, §2
# P. chrysogenum = experiment: conventional agar dilution test, P. chrysogenum; details: Pen = P. chrysogenum
# Description: as §1, §2
# A. aerogenes = experiment: conventional agar dilution test, A. aerogenes; details: Aa = A. aerogenes, complete growth inhibition
# Description: as §1, §2
# [1] = complete growth inhibition, agar dilution
SMILES,MIC (S. typhosa; read-out: Minimum Inhibitory Concentration) [µg/mL],MIC (A. niger) [µg/mL],inhibition at 500 ppm (C. pelliculosa),"MIC (S. aureus; Staphylococcus aureus, read-out: Minimum Inhibitory Concentration) [µg/mL]",MIC (P. aeruginosa) [µg/mL],MIC (S. cerevisiae; Saccharomyces cerevisiae) [µg/mL],"MIC (P. chrysogenum; Penicillium chrysogenum, complete growth inhibition, agar dilution, read-out: Minimum Inhibitory Concentration) [µg/mL]","MIC (A. aerogenes; Klebsiella aerogenes, read-out: Minimum Inhibitory Concentration) [µg/mL]",Minimum Inhibitory Concentration (S. typhosa) [ppm],"MIC (C. pelliculosa; Hansenula anomala, complete growth inhibition, agar dilution, read-out: Minimum Inhibitory Concentration) [µg/mL]",Minimum Inhibitory Concentration (S. aureus) [ppm],Minimum Inhibitory Concentration (P. chrysogenum; [1]) [ppm],Minimum Inhibitory Concentration (A. aerogenes) [ppm],Minimum Inhibitory Concentration (A. niger) [ppm],Minimum Inhibitory Concentration (P. aeruginosa) [ppm],"inhibition at 500 ppm (S. cerevisiae; Saccharomyces cerevisiae, read-out: inhibition at 500 ppm) [%]",inhibition at 500 ppm (S. cerevisiae),Minimum Inhibitory Concentration (S. cerevisiae) [ppm],Minimum Inhibitory Concentration (C. pelliculosa; [1]) [ppm],"inhibition at 500 ppm (P. chrysogenum; Penicillium chrysogenum, 500 ppm) [%]"
"Cl/C=C\C[N+]12CN3CN(CN(C3)C1)C2.[Cl-] [Cis, cis-1-(3-chloro-2-propenyl)-3,5,7-triaza-1-azoniatricyclo(3.3.1.1^3,7)decane chloride, reference compound]",25,> 500,± (50% inhibition at 500 ppm),50,100,250,250,50,–,–,–,–,–,–,–,–,–,–,–,–
"Cl/C=C\C[N+]12CN3CN(CN(C3)C1)C2 [Example 1, Mono-benzoate Salt of Cis]",–,> 500,–,–,250,> 500,–,–,50,> 500,100,500,100,–,–,–,–,–,–,–
"Cl/C=C\C[N+]12CN3CN(CN(C3)C1)C2 [Example 2, p-Toluene Sulfonate Mono-Salt of Cis]",–,–,± (50% inhibition at 500 ppm),–,–,–,–,–,50,–,250,500,100,> 500,250,50,–,–,–,–
Cl/C=C\C[N+]12CN3CN(CN(C3)C1)C2 [Ia],–,–,± (50% inhibition at 500 ppm),–,–,–,–,–,50,–,100,> 500,100,> 500,250,–,± (50% inhibition at 500 ppm),–,–,–
Cl/C=C\C[N+]12CN3CN(CN(C3)C1)C2 [Ib],–,–,.-+. (>90% inhibition at 500 ppm),–,–,–,–,–,50,–,75,500,75,> 500,250,–,± (50% inhibition at 500 ppm),–,–,–
Cl/C=C\C[N+]12CN3CN(CN(C3)C1)C2 [Ic],–,–,± (50% inhibition at 500 ppm),–,–,–,–,–,100,–,100,500,100,> 500,250,–,–,500,–,–
Cl/C=C\C[N+]12CN3CN(CN(C3)C1)C2 [Id],–,–,.-+. (>90% inhibition at 500 ppm),–,–,–,–,–,50,–,250,500,250,> 500,250,–,–,500,–,–
Cl/C=C\C[N+]12CN3CN(CN(C3)C1)C2 [Ie],–,–,–,–,–,–,–,–,25,–,75,> 500,250,> 500,250,–,–,> 500,> 500,–
Cl/C=C\C[N+]12CN3CN(CN(C3)C1)C2 [If],–,–,–,–,–,–,–,–,75,–,250,100,250,250,250,–,–,500,250,–
Cl/C=C\C[N+]12CN3CN(CN(C3)C1)C2 [Ig],–,–,–,–,–,–,–,–,50,–,50,–,250,> 500,250,–,–,> 500,> 500,> 90
Cl/C=C\C[N+]12CN3CN(CN(C3)C1)C2 [Ih],–,–,–,–,–,–,–,–,75,–,250,> 500,250,> 500,250,–,–,> 500,> 500,–
Cl/C=C\C[N+]12CN3CN(CN(C3)C1)C2 [Ii],–,–,–,–,–,–,–,–,50,–,250,100,250,500,250,–,–,500,250,–
Cl/C=C\C[N+]12CN3CN(CN(C3)C1)C2 [Ij],–,–,–,–,–,–,–,–,75,–,250,250,75,500,250,–,–,500,500,–

# Source: USRE29226E, “Preparation of carboxylate and sulfonate salts of 1-cis-(3-chloro-2-propenyl)-3,5,7-triaza-1-azoniatricyclo(3.3.1.1^3, 7)decane-II” (The Dow Chemical Company, priority 1976, dated 1977)
